“And” between values parts separate entries of the source, which are not always exact repeats. Identical values can stand only once.
Key:
BMPR2 = target: T1, BMPR2 (Homo sapiens, UniProt Q13873); test: DSF; assay type: binding
T1 construct: purchased in-house DSF panel (SGC Frankfurt)
T1 sequence (Q13873 27-1038): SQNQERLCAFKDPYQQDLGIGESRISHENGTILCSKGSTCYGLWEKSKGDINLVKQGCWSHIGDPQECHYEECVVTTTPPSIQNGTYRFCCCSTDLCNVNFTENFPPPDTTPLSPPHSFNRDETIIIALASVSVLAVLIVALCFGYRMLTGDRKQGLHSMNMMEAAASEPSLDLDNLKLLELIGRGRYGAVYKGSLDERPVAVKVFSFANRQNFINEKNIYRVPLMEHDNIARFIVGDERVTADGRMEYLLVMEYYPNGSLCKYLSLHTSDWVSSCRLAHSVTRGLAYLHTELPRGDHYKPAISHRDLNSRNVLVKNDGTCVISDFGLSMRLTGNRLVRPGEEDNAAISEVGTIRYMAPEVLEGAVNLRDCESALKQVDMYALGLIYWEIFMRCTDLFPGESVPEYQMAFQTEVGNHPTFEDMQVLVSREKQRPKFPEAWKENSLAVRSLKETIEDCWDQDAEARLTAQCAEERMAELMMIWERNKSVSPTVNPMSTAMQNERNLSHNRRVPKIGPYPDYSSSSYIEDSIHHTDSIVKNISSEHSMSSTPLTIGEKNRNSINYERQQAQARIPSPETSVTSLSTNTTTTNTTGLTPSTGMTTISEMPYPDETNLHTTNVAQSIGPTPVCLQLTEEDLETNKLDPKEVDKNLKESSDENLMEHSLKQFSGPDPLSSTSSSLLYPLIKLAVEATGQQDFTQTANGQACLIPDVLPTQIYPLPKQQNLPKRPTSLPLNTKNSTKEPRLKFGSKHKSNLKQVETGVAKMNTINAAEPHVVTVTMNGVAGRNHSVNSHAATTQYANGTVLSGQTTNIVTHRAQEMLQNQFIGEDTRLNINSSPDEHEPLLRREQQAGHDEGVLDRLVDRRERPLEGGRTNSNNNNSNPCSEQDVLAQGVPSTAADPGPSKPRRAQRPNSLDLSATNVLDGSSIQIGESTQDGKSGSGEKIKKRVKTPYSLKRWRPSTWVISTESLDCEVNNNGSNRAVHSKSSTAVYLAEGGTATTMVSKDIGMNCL
Procedure: (§1) Recombinant protein kinase domains with a concentration of 2 μM were mixed with a 10 μM compound solution in DMSO, 20 mM HEPES, pH 7.5, and 500 mM NaCl. SYPRO Orange (5000×, Invitrogen) was added as a fluorescence probe (1 µl per mL). Subsequently, temperature-dependent protein unfolding profiles were measured, using the QuantStudio™ 5 realtime PCR machine (Thermo Fisher, Waltham, MA, USA). […] The temperature was raised with a step rate of 3 °C per minute. Data points were analyzed with the internal software (Thermal Shift SoftwareTM Version 1.4, Thermo Fisher) using the Boltzmann equation to determine the inflection point of the transition curve [56]. Differences in melting temperature are given as ΔTm values in °C. Measurements were performed in duplicates.

[1] = system: in-house panel of 89–105 kinases; test: DSF selectivity screen; assay type: binding
Description: To investigate the selectivity profile of the different series, a differential scanning fluorimetry (DSF) assay was used. This assay offers a rapid and sensitive screening method that determines the denaturation temperature of a protein in absence and presence of a compound. This assay format measures the fluorescence of a dye, which depends on the folding state of the protein. The difference between the melting temperature (ΔTm) in the absence and presence of the compound represents the binding strength to the protein. We used an in-house panel of 89–105 kinases to screen all synthesized inhibitors (Tables S1–S3).
Measurements were performed in duplicates.

FGFR2 = target: T2, FGFR2 (Homo sapiens, UniProt P21802); test: DSF; assay type: binding;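 note: compound tested at 10 µM with 2 µM protein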
T2 construct: purchased in-house DSF panel (SGC Frankfurt)
T2 sequence (P21802 458-770): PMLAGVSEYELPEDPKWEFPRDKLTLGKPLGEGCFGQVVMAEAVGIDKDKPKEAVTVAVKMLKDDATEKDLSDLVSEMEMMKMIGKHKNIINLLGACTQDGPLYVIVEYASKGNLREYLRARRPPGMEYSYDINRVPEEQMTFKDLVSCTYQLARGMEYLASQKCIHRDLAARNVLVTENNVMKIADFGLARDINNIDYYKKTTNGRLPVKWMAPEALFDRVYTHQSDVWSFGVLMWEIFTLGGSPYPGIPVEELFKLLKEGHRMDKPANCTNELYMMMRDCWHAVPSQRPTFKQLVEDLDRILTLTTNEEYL
Procedure: as §1

GSG2 = target: T3, GSG2 (Homo sapiens, UniProt Q8TF76); test: DSF; assay type: binding
T3 construct: purchased in-house DSF panel (SGC Frankfurt)
T3 sequence (Q8TF76 465-798): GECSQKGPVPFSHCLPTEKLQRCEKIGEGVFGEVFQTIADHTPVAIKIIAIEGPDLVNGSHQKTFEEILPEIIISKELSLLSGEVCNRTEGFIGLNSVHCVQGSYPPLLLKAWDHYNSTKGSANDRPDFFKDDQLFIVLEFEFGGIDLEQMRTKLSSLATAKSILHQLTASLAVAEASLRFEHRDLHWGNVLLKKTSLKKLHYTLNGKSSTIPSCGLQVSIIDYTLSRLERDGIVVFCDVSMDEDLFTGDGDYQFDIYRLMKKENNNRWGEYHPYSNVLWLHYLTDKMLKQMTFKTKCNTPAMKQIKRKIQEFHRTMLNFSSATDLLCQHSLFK
Procedure: as §1

MAP2K6 = target: T4, MAP2K6 (Homo sapiens, UniProt P52564); test: DSF; assay type: binding
T4 construct: purchased in-house DSF panel (SGC Frankfurt)
T4 sequence (P52564 53-314): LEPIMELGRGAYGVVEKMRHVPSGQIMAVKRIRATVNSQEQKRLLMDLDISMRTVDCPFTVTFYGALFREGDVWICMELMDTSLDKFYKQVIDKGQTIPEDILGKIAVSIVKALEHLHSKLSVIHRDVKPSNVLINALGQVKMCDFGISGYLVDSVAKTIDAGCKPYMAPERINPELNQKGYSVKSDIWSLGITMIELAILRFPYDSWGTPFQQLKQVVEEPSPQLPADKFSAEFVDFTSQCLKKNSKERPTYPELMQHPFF
Procedure: as §1

SRC = target: T5, SRC (Homo sapiens, UniProt P12931); test: DSF; assay type: binding;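 note: compound tested at 10 µM with 2 µM protein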
T5 construct: purchased in-house DSF panel (SGC Frankfurt)
T5 sequence (P12931 254-536): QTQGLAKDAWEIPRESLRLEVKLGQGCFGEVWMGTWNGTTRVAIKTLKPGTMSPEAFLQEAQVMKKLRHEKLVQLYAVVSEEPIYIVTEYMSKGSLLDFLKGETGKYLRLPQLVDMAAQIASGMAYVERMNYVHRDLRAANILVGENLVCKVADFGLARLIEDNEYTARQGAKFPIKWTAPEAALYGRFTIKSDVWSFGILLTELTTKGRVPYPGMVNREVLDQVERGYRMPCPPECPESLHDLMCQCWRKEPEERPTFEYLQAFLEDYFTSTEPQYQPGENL
Procedure: as §1

STK6 = target: T6, STK6 (Homo sapiens, UniProt O14965); test: DSF; assay type: binding
T6 construct: purchased in-house DSF panel (SGC Frankfurt)
T6 sequence (O14965 122-403): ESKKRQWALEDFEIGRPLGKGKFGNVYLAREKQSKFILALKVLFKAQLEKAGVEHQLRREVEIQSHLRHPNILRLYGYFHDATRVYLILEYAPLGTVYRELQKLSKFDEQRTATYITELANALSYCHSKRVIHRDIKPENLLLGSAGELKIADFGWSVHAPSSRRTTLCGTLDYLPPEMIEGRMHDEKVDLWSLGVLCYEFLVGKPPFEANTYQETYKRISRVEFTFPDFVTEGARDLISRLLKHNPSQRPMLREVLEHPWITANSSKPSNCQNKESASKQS
Procedure: as §1

CDK16 and GSK3 = test: proteome-wide CETSA MS; assay type: cell-based; conditions: K562 cells, 30 µM, 60 min
Procedure: To verify whether the substances also lead to stabilization of proteins in the cellular system, proteome-wide CETSA experiments were performed. Therefore, lead structure 1 and some compounds from the second series (21b, 21d, 21e, 21h, and 21i) were selected for this study (Figure 6, Figure S1). While the statistical significance is plotted on the Y-axis, the relative protein amount is shown on the X-axis. […] Based on excellent proteome-wide selectivity identifying CDK16 and GSK3 as the most prominently stabilized kinases, 21d and 21i were selected for further investigations. […] We therefore decided to proceed with a CDK16-specific cellular assay.
Compressed CETSA MS assays, also known as PISA (Proteome Integral Stability Alteration assay), were performed as previously described by Chernobrovkin et. al., with some minor changes. K562 cells were obtained from ATCC. K562 cells were mixed with an equal volume of compound solution, final concentartion of 30 µM, in a buffer (20 mM HEPES, 138 mM NaCl, 5 mM KCl, 2 mM CaCl2, 1 mM MgCl2, pH 7.4). One percent and DMSO was used as a control. Cells were incubated at +37 °C for 60 min. The cell suspension was split into 12 aliquots which were heated at a different temperature between 44 and 66 °C for 3 min. After the heating, the cells were lysed through freeze–thawing them 3 times and the lysed aliquots were pooled together. Cell debris and aggregates were removed through centrifugation (20 min at 30.000× g).

Structure (SMILES) | ΔTm BMPR2 (BMPR2) [°C] | kinases beside CDK16 with DSF shift >5 °C (potential off-targets) [1] | ΔTm FGFR2 (FGFR2) [°C] | ΔTm GSG2 (GSG2) [°C] | ΔTm MAP2K6 (MAP2K6) [°C] | ΔTm SRC (SRC) [°C] | ΔTm STK6 (STK6) [°C] | stabilization in CETSA MS (CDK16 and GSK3) | Kinases with shifts > 5°C ([1]; number of kinases of the DSF panel)
CC(C)OC(=O)c1cc(Nc2ccnc(NCc3ccc(NC(=O)OC(C)(C)C)cc3)n2)n[nH]1 [42d, isopropyl 3-((2-((4-((tert-butoxycarbonyl)amino)benzyl)amino)pyrimidin-4-yl)amino)-1H-pyrazole-5-carboxylate] | 0.9 | 1–2 and 1 | 0.1 | 0.5 | 5.0 | 0.4 | 3.4 |  | 
CC(C)(C)OC(=O)Nc1ccc(CNc2nccc(Nc3cc(C(=O)OC(C)(C)C)[nH]n3)n2)cc1 [43d, tert-butyl 3-((2-((4-((tert-butoxycarbonyl)amino)benzyl)amino)pyrimidin-4-yl)amino)-1H-pyrazole-5-carboxylate] | 1.4 | 1–2 and 2 | 0.3 | -0.3 | 3.0 | 0.6 | 4.0 |  | 
COC(=O)c1cc(Nc2ccnc(NCCOCCNC(=O)OC(C)(C)C)n2)[nH]n1 [21d, methyl 5-((2-((2-(2-((tert-butoxycarbonyl)amino)ethoxy)ethyl)amino)pyrimidin-4-yl)amino)-1H-pyrazole-3-carboxylate] | 0.7 |  | 1.5 | 0.2 | 1.4 | 0.5 | 3.2 | stabilization of CDK16 and GSK3 | 
N#CCc1ccc(Nc2nccc(Nc3cc(C4CC4)[nH]n3)n2)cc1 [compound 1, reference compound] | 9.2 |  | 5.9 | 2.9 | 10.4 | 4.4 | 14.3 | stabilization of CDK16 and GSK3 | 
COC(=O)c1cc(Nc2ccnc(NCc3ccc(NC(=O)OC(C)(C)C)cc3)n2)[nH]n1 [21i, methyl 5-((2-((4-((tert-butoxycarbonyl)amino)benzyl)amino)pyrimidin-4-yl)amino)-1H-pyrazole-3-carboxylate] | 1.1 |  | 0.2 | -0.2 | 5.4 | 0.6 | 4.6 | stabilization of CDK16 and GSK3 | 4–9

From PMC9736855, “Discovery of 3-Amino-1H-pyrazole-Based Kinase Inhibitors to Illuminate the Understudied PCTAIRE Family” (International Journal of Molecular Sciences, 2022)
